Experimental data reported in ChEMBL document CHEMBL3046086, “In-silico design, synthesis and evaluation of novel DNA-gyrase B inhibitors” (2013).

How the values were obtained:
[1] = test system: Staphylococcus aureus; assay: Antibacterial activity against Staphylococcus aureus assessed as growth inhibition at 1500 uM after 24 hr by agar well diffusion method; type: functional; settings: read-out: IZ
[2] = test system: Escherichia coli; assay: Antibacterial activity against Escherichia coli assessed as growth inhibition at 1500 uM after 24 hr by agar well diffusion method; type: functional; settings: read-out: IZ

`Cc1cc(=O)[nH]c2cc(Nc3nccnc3C(=O)O)ccc12` was tested, and the zone of inhibition at 1500 µM [1] was 7.5 mm and the zone of inhibition at 1500 µM [2] was 8 mm.

Compound `Cc1cc(=O)[nH]c2cc(Nc3ccc(C(=O)O)cc3)ccc12` has a zone of inhibition at 1500 µM [1] of 13.5 mm and a zone of inhibition at 1500 µM [2] of 12.8 mm.

Compound `Cc1cc(=O)[nH]c2cc(Nc3cnc(C(=O)O)cn3)ccc12` has a zone of inhibition at 1500 µM [1] of 9 mm and a zone of inhibition at 1500 µM [2] of 8.5 mm.

In the case of `Cc1cc(=O)[nH]c2cc(Nc3cccc(C(=O)O)c3)ccc12`, the zone of inhibition at 1500 µM [1] is reported as 7 mm and the zone of inhibition at 1500 µM [2] is reported as 7 mm.

`Cc1cc(=O)[nH]c2cc(Nc3ncccc3C(=O)O)ccc12` gave a zone of inhibition at 1500 µM [1] of 5 mm and a zone of inhibition at 1500 µM [2] of 4.2 mm.

`Cc1cc(=O)[nH]c2cc(Nc3ccncc3C(=O)O)ccc12` gave a zone of inhibition at 1500 µM [1] of 9 mm and a zone of inhibition at 1500 µM [2] of 7 mm.

`O=C(O)c1cn(C2CC2)c2cc(N3CCNCC3)c(F)cc2c1=O` [CIPROFLOXACIN] was tested, and the zone of inhibition at 1500 µM [1] was 15 mm.

In the case of `Cc1cc(O)nc2cc(N)ccc12`, the zone of inhibition at 1500 µM [1] is reported as 5.5 mm and the zone of inhibition at 1500 µM [2] is reported as 4 mm.

`Cc1cc(=O)[nH]c2cc(Nc3ccc(C(=O)O)cn3)ccc12` gave a zone of inhibition at 1500 µM [1] of 3 mm.

With `Cc1cc(=O)[nH]c2cc(Nc3ccccc3C(=O)O)ccc12` the zone of inhibition at 1500 µM [1] was 8 mm and the zone of inhibition at 1500 µM [2] was 7 mm.
